Data set [1] is described as follows: Crystalline form after micronization (XRPD, DSC, HSM). Type of data set: physicochemical. As to conditions: micronized, D90≤15 μm. As to the method:
The pressure of the micronization equipment was set to be ≥0.65 MPa to obtain an EOC315 crystalline form micropowder, with a particle size D90≤15 μm. The X-ray powder diffraction, DSC, and HSM data of the micronized sample were measured using the aforementioned methods, and the results are shown in FIG. 2, FIG. 4, and FIG. 6.

Data set [2] relates to advanced gastric cancers or gastroesophageal junction (GEJ) cancers. The experiment in a line: Efficacy study of EOC315 with capecitabine and cisplatinum in patients. To be noted: combination with capecitabine and cisplatinum. Type of data set: in vivo, human. An excerpt:
After at most 6 cycles of cisplatinum treatment, both or either of capecitabine and EOC315 was delivered to a subject in a dosage previously used according to the toxic reaction conditions, until the disease progressed.
Forty-eight subjects in total were enrolled for this study. Forty-five subjects (94%) had tumor metastasis and thirty-five subjects (73%) had more than two metastatic sites thereinto. The livers of 26 subjects (54%) were involved due to the tumors. The major sites involved for the 26 subjects (54%) were gastroesophageal junctions, the major sites involved for 22 subjects (46%) were stomach, and the majority of the subjects got an ECOG score of 1 (n=41, 85%).
Thirty-nine subjects completed at least one course of treatment and got therapeutic effect evaluation. The objective response rate (ORR) was 67%. One subject (2.6%) achieved the complete response. […] It was evaluated that the objective response generally occurred in the previous two cycles of treatment and lasted for a long time, which was related closely to the duration of treatment received by the subjects. The anti-tumor effect was not related to tumor tissue type, the primary site, whether or not liver is involved, or the study center. Median progression-free survival (PFS) was 4.5 months. […] The median time to progression for patients showing tumor remission was 6.4 months. Median overall survival (OS) was estimated to be 7.8 months, and the 1-year survival rate was 33%.

For data set [3], the target named is VEGFR-2 (Vascular Endothelial Growth Factor Receptor-2) tyrosine kinase (Homo sapiens, UniProt P35968). As to conditions: cited from earlier work.
VEGFR-2 (Vascular Endothelial Growth Factor Receptor-2) tyrosine kinase, sequence (P35968 20-1356): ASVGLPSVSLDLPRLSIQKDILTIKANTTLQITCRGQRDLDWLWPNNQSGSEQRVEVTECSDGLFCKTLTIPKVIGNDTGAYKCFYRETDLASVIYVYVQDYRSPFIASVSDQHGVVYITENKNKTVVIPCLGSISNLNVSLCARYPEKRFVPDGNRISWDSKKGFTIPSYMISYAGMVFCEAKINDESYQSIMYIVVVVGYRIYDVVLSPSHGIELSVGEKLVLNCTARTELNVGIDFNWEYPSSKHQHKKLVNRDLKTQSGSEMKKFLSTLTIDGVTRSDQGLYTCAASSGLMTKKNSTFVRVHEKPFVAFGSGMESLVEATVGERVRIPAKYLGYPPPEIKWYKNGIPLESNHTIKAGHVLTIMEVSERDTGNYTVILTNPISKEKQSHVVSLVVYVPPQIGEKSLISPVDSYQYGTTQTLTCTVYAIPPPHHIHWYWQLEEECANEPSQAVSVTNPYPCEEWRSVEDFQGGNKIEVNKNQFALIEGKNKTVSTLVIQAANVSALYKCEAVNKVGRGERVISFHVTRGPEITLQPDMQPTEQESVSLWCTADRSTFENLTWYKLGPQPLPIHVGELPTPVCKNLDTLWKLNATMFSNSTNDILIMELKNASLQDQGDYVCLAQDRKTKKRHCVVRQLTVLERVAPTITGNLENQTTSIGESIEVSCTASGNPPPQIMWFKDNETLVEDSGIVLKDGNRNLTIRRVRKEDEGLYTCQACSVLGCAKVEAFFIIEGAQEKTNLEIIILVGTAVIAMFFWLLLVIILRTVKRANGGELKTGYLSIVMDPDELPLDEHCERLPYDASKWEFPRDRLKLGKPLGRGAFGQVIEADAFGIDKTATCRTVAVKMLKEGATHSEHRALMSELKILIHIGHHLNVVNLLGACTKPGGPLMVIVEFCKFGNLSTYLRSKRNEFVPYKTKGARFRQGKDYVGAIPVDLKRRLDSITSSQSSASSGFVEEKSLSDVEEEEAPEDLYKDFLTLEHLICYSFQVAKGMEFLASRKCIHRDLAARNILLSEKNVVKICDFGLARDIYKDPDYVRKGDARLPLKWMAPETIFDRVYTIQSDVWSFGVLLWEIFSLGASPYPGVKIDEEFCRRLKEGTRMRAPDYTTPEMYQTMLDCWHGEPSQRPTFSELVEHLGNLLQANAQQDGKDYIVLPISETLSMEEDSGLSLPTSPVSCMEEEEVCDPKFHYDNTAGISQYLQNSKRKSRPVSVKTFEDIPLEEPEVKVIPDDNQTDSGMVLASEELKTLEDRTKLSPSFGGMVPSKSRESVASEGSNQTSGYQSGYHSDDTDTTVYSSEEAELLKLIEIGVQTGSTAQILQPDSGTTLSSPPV
In data set [4] the test system is PDGFR (Platelet-Derived Growth Factor Receptor) tyrosine kinase. As to conditions: cited from earlier work.

Molecules are shown by their SMILES. Counter-ions that a name gives are not always drawn.

For the molecule `CNC(=O)c1cc(OCc2nnc(Nc3ccc(Cl)cc3)c3ccoc23)ccn1` [micronized EOC315], the “crystalline form after micronization” value in data set [1] is recorded as “remained unchanged”.

Turning to `CNC(=O)c1cc(OCc2nnc(Nc3ccc(Cl)cc3)c3ccoc23)ccn1` [EOC315, 4-(4-chloroanilino)-7-(2-methylaminocarbonyl-4-oxymethyl) pyridylfuro[2,3-d]pyridazine mesylate], the “proportion of patients without tumor-progression within 6 months” value in data set [2] (Kaplan-Meier analysis) was found to be 52%. In data set [2], the 1-year survival rate is reported as 33% and the “median progression-free survival (PFS)” value was 4.5 months. In data set [2] (39 evaluable subjects), the “objective response rate (ORR)” value amounted to 67%, the “subjects with complete response” value was 2.6%, the “subjects with partial response” value is 64.1% and the “subjects with stable condition maintained more than 12 weeks” value amounted to 28.2%. Also, the “median overall survival (OS)” value in data set [2] (estimated) is on record as 7.8 months. For the same molecule, in data set [2] (patients showing tumor remission), the “median time to progression” value is recorded as 6.4 months. For the same molecule, the IC50 (commonly the concentration that inhibits the measured activity by half) in data set [3] is 0.006 µM. Besides, the IC50 in data set [4] was 0.015 µM.

The values above are taken from patent US10954246B2, “Compound of EOC315 Mod.I crystal form and preparation method thereof” (Taizhou EOC Pharma Co., Ltd., priority 2017, dated 2021).
